# Entries after “also recorded” stand apart in the source; their conditions may differ.
# What was measured:
# healthy volunteers = assay: GLP toxicology studies and Phase 1 clinical study with healthy volunteers; conditions: human, in vivo
# From the text: In non-clinical safety and efficacy studies, TPX-100 was first tested for its bone formation activity.
# [1] = test system: subjects with bilateral patello-femoral knee osteoarthritis; assay: Example 2: re-analysis of the study with stricter MRI image qualification (79 subjects); type: in vivo, human
# Method: After the data analyses in EXAMPLE 1, a few more MRI images were questioned with regard to their technical quality to enable assessment of periarticular bone shape change over time. In order to assure the quality of the overall analysis results, a stricter qualification standard was applied to the MRI images used in EXAMPLE 1, and requalification was performed. Seventy-nine (79) subjects were requalified. The MRI knee images of these subjects were re-analyzed for their periarticular bone shape changes, as well as their correlations with the changes of tibiofemoral cartilage thickness and pain, respectively, in the same manner as described in EXAMPLE 1.
# The requalified 79 subjects were included in the efficacy analysis per the Statistical Analysis Plan.
# [2] = test system: cultured neonatal mouse calvaria; conditions: cited from earlier work
# defects in human molar [3] = conditions: in vivo; cited from earlier work
# [4] = test system: subjects with bilateral patello-femoral knee osteoarthritis; assay: Same study: MRI-based patello-femoral and tibiofemoral cartilage thickness; type: in vivo, human
# Method: (§1) Subjects returned to their respective study sites at 3, 6 and 12 months after the first dosing day for follow-up evaluations. In addition, the study sites monitored the subject's condition through telephone contact 9 months after the first dosing day. During the 3, 6, and 12 months post-treatment, subjects were evaluated on site with physical examinations, vital signs, serum chemistries, as well as completing patient-reported outcomes including the KOOS. Adverse events and concomitant medications were recorded. MRIs of both knees were obtained during the 6 and 12-month visits.
# (§2) All KOOS subscale scores, WOMAC Total score and subscale scores, MRI-based patello-femoral and tibiofemoral cartilage thickness, and MRI-based periarticular bone area and 3D bone shape were analyzed.
# (§3) MRI images were provided to central readers cartilage and periarticular bone measures. Central readers were blind as to treatment assignment.
# (§4) Statistical analyses were carried out using a two-sided paired t-test at the 5% level of significance. The outcome variables were the differences of the change of the score of each subscale of KOOS, change of cartilage thickness, periarticular bone area, and 3D bone shape score (“B Score”) change from baseline to 6 and 12 months in the treated knee (“Index Knee”) compared with the placebo-exposed knee (“Control Knee”).
# defects in human molar [5] = assay: Phase 2 study of dentin formation in defects in human molar; type: in vivo; conditions: both Phase 2 studies
# Method: Based on these safety and bone and dentin formation data, TPX-100 was tested in two Phase 2 studies for alveolar bone and dentin formation activities, respectively.
# rat dental defect = conditions: in vivo; cited from earlier work
# [6] = test system: subjects with bilateral patello-femoral knee osteoarthritis; assay: Same study: MRI-based periarticular bone area and 3D bone shape (AAM, B Score); type: in vivo, human
# From the text: The 3D bone shape change can be quantified using active appearance modelling (AAM). AAM enables encoding of the 3D shape and appearance of an object using multiple anchor points (“principal components”) on the surface of the object. These principal components describe computationally the specific 3D shape of the object. The use of AAM to represent femur, tibia, and patella shapes has been described in detail by Neogi, et. al. (Neogi 2013).
# The MRI images of each knee used in cartilage thickness measurement were used to measure surface area of the periarticular bone in lateral and medial femur, lateral and medial trochlear femur, lateral and medial tibia, as well as lateral and medial patella. Bone shape scores in femur, trochlear femur, tibia, and patella were also measured using the same MRI images.
# as §2, §3
# Bone area and 3D shape of periarticular bone were analyzed using AAM software developed by iMorphics (www.imorphics.com) specifically for assessing these parameters in the osteoarthritic knee.
# as §4
# Change in periarticular bone area and 3D bone shape as measured by MRI was also compared between Index and Control Knee groups. It should be noted that there were eight subjects whose MRI images were of insufficient quality and were excluded from bone area and shape analyses. Therefore, each evaluable treatment arm consisted of 85 knees.
# [7] = test system: full-thickness chondral defect; conditions: in vivo; cited from earlier work
# [8] = test system: subjects with bilateral patello-femoral knee osteoarthritis; assay: Same study: safety and tolerability; type: in vivo, human
# Method: The study was divided into Part A and Part B. The Part A was designed to evaluate safety of intra-articular (I.A.) administration of TPX-100 at different dosing levels (20, 50, 100, or 200 mg per injection in sequential cohorts) in the subjects with osteoarthritis of the knees and to select a dose for Part B. Part B was to evaluate safety and efficacy of the selected dose of TPX-100.
# Subjects in Part A were enrolled in sequential cohorts and randomized to receive 20, 50, 100 or 200 mg of TPX-100 in one knee (Index Knee) and identical placebo in the contralateral (Control) knee. Subjects, sites and sponsor and central MRI readers were blinded as to treatment assignment. A Safety Review Committee (SRC) evaluated safety in each dosing cohort. The SRC assessed safety and determined whether the next higher dosing regimen could be enrolled. All dosing cohorts in Part A were completed and analyzed with regard to safety prior to dose selection and initiation of Part B.
# On the first dosing day, the randomized subjects were assessed by physical examinations and vital signs. Further, they completed the Knee injury and Osteoarthritis Outcome Score (KOOS), which includes the Western Ontario and McMaster Universities Osteoarthritis Index (WOMAC). The KOOS questionnaire assesses knee-specific activities of daily living, sports and recreation, knee-related quality of life, other symptoms such as stiffness, and knee pain. The KOOS has been used extensively in longitudinal studies of knee osteoarthritis. After assessments were completed, subjects received one intra-articular injection in each knee, with each injection prepared from the vial(s) marked for that knee. One knee received TPX-100, and the contralateral knee received placebo with subject, site, and sponsor blinded to treatment assignment. Subjects were monitored for adverse events during the injections and for a few hours after the injections. Vital signs were also monitored after the injections.
# On the 7th, 14th, and 21st days after the first dosing, subjects received the second, third, and fourth (last) dosing of the same study materials, respectively. Safety and adverse event assessments were obtained as on the first dosing day.
# as §1
# [9] = Example 2, 79 requalified subjects, Index vs Control knees, 6 or 12 month, or both
# [10] = Example 2, Index vs Control Knees, 12 months
# [11] = Index vs Control Knees, 6 or 12 months
substance,measurement,setting,value
"TPX-100: synthetic peptide consisting of 23 amino acids, TDLQERGDNDISPFSGDGQPFKD, derived from human Matrix Extracellular Phosphoglycoprotein (MEPE)",Safety in GLP toxicology studies and Phase 1 study,healthy volunteers,Safety of the TPX-100 peptide was further confirmed
same,KOOS ADL improvement,[1]; [9],clinically meaningful and statistically significant (p<0.05) improvements
same,KOOS Knee-related QOL improvement,[1]; [9],clinically meaningful and statistically significant (p<0.05) improvements
same,WOMAC Function improvement,[1]; [9],clinically meaningful and statistically significant (p<0.05) improvements
same,3D periarticular femur bone shape change (bone shape score),"[1]; Example 2, Index vs Control Knees, 6 and 12 months",statistically significant (p<0.05) delay of femur bone shape change
same,KOOS Pain subscale improvement,[1]; [10],clinically meaningful improvement in Index Knees with a trend towards statistical significance (p<0.09)
same,Pain bending knee fully (KOOS Pain question),[1]; [10],significantly improved (p<0.05)
same,Pain frequency (KOOS Pain question),[1]; [10],significantly improved (p<0.05)
same,Pain going up or down stairs (KOOS Pain question),[1]; [10],significantly improved (p<0.05)
same,3D bone shape change in patella in pain frequency responders,"[1]; Example 2, responders",eventually no change in the 3D bone shape in patella
same,"Pain frequency in responders, baseline to 12 months","[1]; Example 2, responders to TPX-100",decreased from daily pain at baseline to semi-monthly pain at 12 months
same,Bone formation activity in calvaria culture,[2],thickening of cultured neonatal mouse calvaria
same,Dentin formation in defects in human molar,defects in human molar [3],reparative dentin formation
same,Overall tibiofemoral cartilage thickness change from baseline,[4]; [11],not measurably different between Index and Control Knees
same,Patello-femoral (patella) cartilage thickness change from baseline by MRI (primary endpoint),[4]; [11],no statistically significant difference between Index vs. Control Knees; also recorded: no measurable difference between Index and Control Knees
same,Tibiofemoral cartilage thickness change in TPX-100-treated responder knees,"[4]; knees with clinically meaningful functional improvements, baseline to 12 months",significantly increased
same,"Tolerability in two Phase 2 studies (alveolar bone, dentin)",defects in human molar [5],well tolerated in both studies
same,Dentin formation,rat dental defect,promote dentin formation
same,Mean bone shape change rate,"[6]; Index Knees, first 6 months",0.03
same,"Periarticular bone area change, lateral femur, lateral patella and medial patella","[6]; Index Knees, first 6 months",nearly zero in all regions
same,3D periarticular bone shape change of femur (B score),"[6]; Index vs Control Knees, 6 and 12 months (p=0.005 and 0.007)",statistically significant decrease in shape change compared to Control Knees; also recorded: statistically significant (p<0.05) difference in favor of Index Knees
same,"Periarticular bone area increase, medial femur","[6]; Index vs Control Knees, 6 months","less periarticular bone area increase as compared to Control Knees at 6 months, with a trend toward statistical significance (p=0.08); also recorded: less pathological bone area increase as compared to Control Knee at 6 months, with a trend toward statistical significance (p=0.08)"
same,"Periarticular bone area increase, lateral femur, lateral and medial patella","[6]; Index vs Control Knees, 12 months",slower increase at 12 months compared with Control Knees
same,3D periarticular bone shape changes in tibia and patella,"[6]; Index vs Control Knees, no statistically significant difference",slower changes in Index Knees as compared to Control Knees
same,3D bone shape change of patella in pain frequency responder group,"[6]; responders, through 12 months",remained approximately zero through 12 months; also recorded: eventually no change in the 3D bone shape in patella
same,Safety and tolerability in goats,[7],safe and well-tolerated
same,Safety and tolerability,"[8]; 200 mg per dose, 4 once-weekly intra-articular injections",safe and well tolerated
same,Dose-limiting toxicities,"[8]; Part A, 20, 50, 100 and 200 mg per injection",no dose-limiting toxicities
same,Severe adverse events related to treatment,[8]; in vivo,no severe adverse events that were related to TPX-100 treatment
same,Severity of treatment-related adverse events,[8]; in vivo,"mild or moderate, transient"
